Laboratory results taken from patent US12649925B2, “Tissue-specific expression and hybrid plant production” (Dow AgroSciences LLC, priority 2013, dated 2026).

B1: pDAB112375: Transient transformation construct: ZmUbilv2/AAD1 v3/native WT miR529-156 site/ZmPer5 3′UTR (SEQ ID NO:6) (nucleic acid)
DNA: ATGGCTCATGCTGCCCTCAGCCCTCTCTCCCAACGCTTTGAGAGAATAGCTGTCCAGCCACTCACTGGTGTCCTTGGTGCTGAGATCACTGGAGTGGACTTGAGGGAACCACTTGATGACAGCACCTGGAATGAGATATTGGATGCCTTCCACACTTACCAAGTCATCTACTTTCCTGGCCAAGCAATCACCAATGAGCAGCACATTGCATTCTCAAGAAGGTTTGGACCAGTTGATCCAGTGCCTCTTCTCAAGAGCATTGAAGGCTATCCAGAGGTTCAGATGATCCGCAGAGAAGCCAATGAGTCTGGAAGGGTGATTGGTGATGACTGGCACACAGACTCCACTTTCCTTGATGCACCTCCAGCTGCTGTTGTGATGAGGGCCATAGATGTTCCTGAGCATGGCGGAGACACTGGGTTCCTTTCAATGTACACAGCTTGGGAGACCTTGTCTCCAACCATGCAAGCCACCATCGAAGGGCTCAACGTTGTGCACTCTGCCACACGTGTGTTCGGTTCCCTCTACCAAGCACAGAACCGTCGCTTCAGCAACACCTCAGTCAAGGTGATGGATGTTGATGCTGGTGACAGAGAGACAGTCCATCCCTTGGTTGTGACTCATCCTGGCTCTGGAAGGAAAGGCCTTTATGTGAATCAAGTCTACTGTCAGAGAATTGAGGGCATGACAGATGCAGAATCAAAGCCATTGCTTCAGTTCCTCTATGAGCATGCCACCAGATTTGACTTCACTTGCCGTGTGAGGTGGAAGAAAGACCAAGTCCTTGTCTGGGACAACTTGTGCACCATGCACCGTGCTGTTCCTGACTATGCTGGCAAGTTCAGATACTTGACTCGCACCACAGTTGGTGGAGTTAGGCCTGCCCGCTGAGTAGTTAGCTTAATCACCTAGAGCTCGACTCCAGCTGTGCTCTCTCTCTTCTGTCAACTCAGGTAACCTTTAAACTGAGGGCACTGAAGTCGCTTGATGTGCTGAATTGTTTGTGATGTTGGTGGCGTATTTTGTTTAAATAAGTAAGCATGGCTGTGATTTTATCATATGATCGATCTTTGGGGTTTTATTTAACACATTGTAAAATGTGTATCTATTAATAACTCAATGTATAAGATGTGTTCATTCTTCGGTTGCCATAGATCTGCTTATTTGACCTGTGATGTTTTGACTCCAAAAACCAAAATCACAACTCAATAAACTCATGGAATATGTCCACCTGTTTCTTGAAGAGTTCATCTACCATTCCAGTTGGCATTTATCAGTGTTGCAGCGGCGCTGTGCTTTGTAACATAACAATTGTTACGGCATATATCCAA
modifications: pDAB112375 expression cassette; (918)..(952) native tsh4 miR529-156 target site; (967)..(1331) ZmPer5 3′UTR

Key:
[1] = tested on: maize tissues; assay: miRNA microarray expression profiling in maize tissues; parameters: species or system Zea mays
Procedure: miRNA microarray in various maize tissues: Tissues from maize inbred line B104 were used for miRNA profiling. Leaf tissues (at V2, V8 and flag leaf stages); immature tassel tissues (0.5 to 2.5 cm length); mature tassel tissues (tassel visible in the whorl); immature ear tissues (0.5 to 2 cm length); and mature ear tissues (visible ear shoot) were collected and immediately submerged in liquid nitrogen and stored at −80° C. Total RNA and low molecular weight RNAs were extracted using a mirVana™ miRNA isolation kit (INVITROGEN; Carlsbad, CA) following the manufacturer's instructions. RNA quality and quantity were assessed by optical density with a NANODROP 2000 spectrophotometer (THERMO SCIENTIFIC; Wilmington, DE) and by gel electrophoresis. miRNA microarray was performed by a commercial provider (LC SCIENCES; Houston, TX) using μParaflo® microfluidic oligonucleotide microarray technology. Zhou et al., (2012) Methods Mol. Biol. 822:153-82. All unique plant miRNA sequences available in MiRBase™ (mirbase.org) were printed on the arrays and used for miRNA profiling. […]

[2] = tested on: Maize Immature Embryos; assay: Transient AAD1 expression in immature embryos after particle bombardment, ELISA; format: cell-based, Zea mays; details: 24 hours after particle bombardment
Description: Zea mays embryos from inbred line B104 that express AAD1 mRNAs having miRNA target sites within the mRNA were produced. Control tissues having no miRNA target sites in the AAD1 mRNA, or having no AAD1 gene expression cassette, were also produced. Other control tissues were produced that had only a YFP gene expression cassette (and no AAD1 construct). Preparations of plant transformation DNA molecules constructed as described in EXAMPLE 2 were delivered into maize B104 immature embryos via particle bombardment transformation.
Plasmid DNAs of pDAB112375, pDAB112376, pDAB112377, pDAB113016, pDAB100286, pDAB112378 and pDAB112330 were isolated and purified from Escherichia coli by standard techniques, and diluted in TE buffer (10 mM Tris HCl plus 1 mM EDTA, pH 8) to 1.0 μg/μL.
Embryo isolation and culture: (Day 1) Surface-sterilized B104 immature ears (10 to 12 days post-pollination) were used for the isolation of embryos. Excised immature embryos from 3 to 4 ears were pooled into 2 mL microfuge tubes containing 2.0 mL liquid medium (LS basal medium (Linsmaier and Skoog, (1965) Physiologia Plantarum 18:100-27) containing CHU N6 vitamins (Chu et al. (1975) Scientia Sinica 18:659-68), 700 mg/L L-Proline, 68.5 gm/L sucrose, 36 gm/L D(+) glucose, and 1.5 mg/L 2,4-D). After embryo isolation, the liquid medium was removed and discarded. Embryos were removed and placed onto plates (40 embryos per plate) containing a semi-solid osmotic medium (MS basal medium (Murashige and Skoog, (1962) Physiologia Plantarum 15:473-497), 2 mg/L Glycine, 500 μg/L Thiamine, 500 μg/L Pyroxidine, 50 μg/L Nicotinic Acid., 120 gm/L sucrose, 100 mg/L myo-inositol, and 2.4 gm/L GELRITE). The embryos were arranged in a […] within the target area for particle bombardment. Three replicate plates were prepared for each construct to be tested. All plates were incubated at 28° C. under continuous low light (50 μEm^−2 sec^−1) for 24 hours prior to particle bombardment.
Coating gold particles with DNA: (Day 2) Tubes of frozen gold particles glycerol stock were thawed on ice for a few minutes, then vortexed for 2 minutes at high speed until a uniform gold suspension was produced. Gold suspension was pipetted into sterile microcentrifuge tubes (50 μL each), with an intermediate vortexing of the particle stock between each tube to maintain a uniform suspension. 2.5 μg each of appropriate plasmid DNAs were included. […]
ELISA quantification of AAD1 and PAT proteins: Enzyme Linked Immunosorbant Assays (ELISAs) were used to measure the production of AAD1 and PAT proteins in maize cells and stably-transformed tissues. […]

Molecule	relative expression levels ([1]; Flag Leaf)	relative expression levels ([1]; Immature Ear)	relative expression levels ([1]; Immature Tassel)	relative expression levels ([1]; Leaf V2)	relative expression levels ([1]; Leaf V8)	relative expression levels ([1]; Mature Ear)	relative expression levels ([1]; Mature Tassel)	level higher in immature tassel tissues than in leaves ([1]; immature tassel vs leaves)	Mean AAD1 Amount ([2]; co-bombardment plasmid pDAB112330 (Cry34Ab)) [ng/mL]	Mean AAD1 Amount ([2]; co-bombardment plasmid pDAB112378 (artificial miRNA)) [ng/mL]
miR529: Zea mays micro-RNA, SEQ ID NO:2 AGAAGAGAGAGAGUACAGCCU (expressed or natural sequence)	30	90	3174	199	34	1405	1512	16- to 100 fold		
miR319: micro-RNA, SEQ ID NO:3 UUGGACUGAAGGGUGCUCCC (expressed or natural sequence)	16	3905	2078	13	8	4616	1566			
miR156: Zea mays micro-RNA, SEQ ID NO:1 UGACAGAAGAGAGUGAGCAC (expressed or natural sequence)	1657	112	78	4648	1337	1595	2810			
B1									58	51
